Data on four compounds can be found in article PMC8231556, “Inhibiting Endothelial Cell Function in Normal and Tumor Angiogenesis Using BMP Type I Receptor Macrocyclic Kinase Inhibitors” (Cancers, 2021).

Test [1] has as its system HUVECs. As to the kind of experiment: Chemotactic invasion assay. The settings on record: 0.5 µM, towards full medium with 20% FBS. The class given is cell-based, human. Here is the method:
The invasion potential of ECs was investigated using the chemotactic invasion assay, according to the IncuCyte instruction manual. Briefly, the top layer of an IncuCyte ClearView 96-well chemotaxis plate (4582, Essen Bioscience) was coated with 1% gelatin for 30 min. One thousand five hundred HUVEC cells/well were seeded on the gelatin-coated top plate and covered with 60 µL M199 medium with 1% FBS containing 0.5 µM of the indicated compounds or vehicle control (DMSO). Then 200 µL/well of M199 supplemented with 20% FBS, 100 IU/mL penicillin/streptomycin, 0.01 IU/mL Heparine, and BPE with 0.5 µM of the indicated compounds was added to the bottom plate. The plate was placed in the IncuCyte, and whole well images of both top and bottom membranes were captured every 4 h for one day using the IncuCyte Chemotaxis imaging protocol. Finally, the top and bottom cell areas were quantified with the instrument’s software using automated algorithms. The ECs invasive behavior was presented as total bottom cell area normalized to the initial top cell area. All the experiments were repeated at least three times, and representative results are shown.

The target of test [2] is T1, RPS6KB1 (Homo sapiens, UniProt P23443).
T1 construct: purchased ProQinase (33PanQinase Activity Assay)
As to the kind of experiment: radiometric kinase profiling (33 PanQinase). To be noted: read-out: Inhibitory effect (%) RPS6KB1. The test is classed as biochemical. Put shortly: (§1)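 Enzyme/substrate mixes were incubated with [γ-33P]-ATP and compound (added as a 0.1 μM solution in 10% DMSO) at 30 °C for 60 min, then stopped with H3PO4 and washed with NaCl. 33P incorporation was scintillation-counted, and residual activity (%) was normalized to untreated control and background.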

Test [3] concerns the target T2, NTRK1 (Homo sapiens, UniProt P04629).
T2 construct: purchased ProQinase (33PanQinase Activity Assay)
Briefly: radiometric kinase profiling (33 PanQinase). The settings on record: read-out: Inhibitory effect (%) NTRK1. The test is classed as biochemical. The procedure, abridged:
as §1

Test [4] concerns the target T3, PIM2 (Homo sapiens, UniProt Q9P1W9).
T3 construct: purchased ProQinase (33PanQinase Activity Assay)
Briefly: radiometric kinase profiling (33 PanQinase). The settings on record: read-out: Inhibitory effect (%) PIM2. The class given is biochemical. Put shortly: as §1

For test [5], the system named is EA.hy926 cells. As to the kind of experiment: Scratch wound migration assay. The test is classed as cell-based, human. The settings on record: 0.5 µM, 24 h; for effect on FBS-induced EC migration: 1% FBS; for effect on BMP9-induced EC migration: BMP9 1 ng/mL; for effect on VEGF-induced EC migration: VEGF 15 ng/mL. Here is the method: Approximately 5 × 10^4 EA.hy926 cells/well were seeded in a 96-well microplate Essen ImageLock™ (4379, Essen Bioscience, Ann Arbor, MI, USA) and cultured overnight. Then homogeneous 700–800 micron-wide scratch wounds were made using a WoundMaker™ device (4563, Essen Bioscience, Ann Arbor, MI, USA) containing 96 pins. The compounds and/or ligands were added to each well in 100 µL of fresh serum-free medium. Each group contained 6 replicates. Real-time pictures were acquired every 4 h by the IncuCyte ZOOM (Essen Bioscience) to track the wound closure. The wound density was analyzed using the software package provided by the manufacturer and normalized to the wound width at the start of the experiment. All the experiments were repeated at least three times, and representative results are shown.

The test system of test [6] is constitutively active ALK1 (caALK1). Briefly: caALK1-induced BRE-Luc reporter activity in C2C12 cells. The class given is cell-based. The settings on record: for inhibition of caALK1 compared to caALK2 (BRE-Luc): C2C12 cells. The text has this: To further investigate and validate the selective inhibitory effects of OD16 and OD29 toward BMP9/ALK1 and BMP6/ALK2 signaling, we transfected C2C12 myoblast cells with constitutively active mutant ALK1 and ALK2 (caALK1 and caALK2). These constitutively active receptors signal in the absence of exogenous ligands and allow for a more direct assessment of inhibitory effects that are elicited by kinase receptor inhibitors. […]
Figure S4. OD29 and OD16 are two small molecule BMP type I receptors kinase inhibitors in C2C12 cells. Effects of vehicle control (DMSO), LDN−193189, OD16 or OD29 on BRE transcriptional luciferase reporter activity induced by the ectopic expression of caALK1 (A) or caALK2 (B) in C2C12 cells. Cells were incubated with the inhibitors in three different con-centrations (0.1 μM, 0.5 μM or 1 μM) for 16 hours. Representative results from three biologically independent experiments are shown as mean ± SD. NS, not significant; * p < 0.05, ** p < 0.005; *** p < 0.001.

Test [7] concerns BMP9-induced BRE-Luc activity. As to the kind of experiment: BRE-luciferase transcriptional reporter assay, BMP9-stimulated EA.hy926-BRE-Luc cells. The test is classed as cell-based, human. The settings on record: for BMP9-induced BRE-Luc activity (fold): BMP9 1 ng/mL alone 5.0 fold. The text has this: The BMP responsive element (BRE)-driven transcriptional luciferase reporter, which contains SMAD1/5-SMAD4 responsive elements of the ID1 gene promoter, was used to assess the activation of the BMP/SMAD signaling pathway. A lentiviral vector carrying this reporter construct (pRRL-BRE-Luc) was generated by digesting the MLP-BRE-Luc plasmid with KpnI and SalI and then inserted into the lentivirus vector pRRL-CMV digested with XhoI and KpnI. Lentiviral particles were made using HEK 293 T cells, and EA.hy926 cells were transduced to generate BRE-Luc stably expressing cells, named as EA.hy926-BRE-Luc.
EA.hy926-BRE-Luc cells were seeded at approximately 5 × 10^5 cells/well in a 24-well plate. Cells were serum-starved overnight by incubating with a serum-free medium. After starvation, the cells were pre-incubated with the compounds for 30 min and subsequently stimulated overnight with ligands (or vehicle control). Thereafter, the cells were lysed, and luciferase activity was measured with the firefly luciferase assay System kit (E1501, Promega Corporation, Madison, WI, USA) using a PerkinElmer luminometer. The firefly luciferase activity was normalized to protein content, which was determined using the DC protein assay kit (5000111, Bio-Rad, Hercules, CA, USA).
(In general: Reporter assays use an easily measured gene product as a stand-in for the process of interest.)

T2 sequence (P04629 33-796): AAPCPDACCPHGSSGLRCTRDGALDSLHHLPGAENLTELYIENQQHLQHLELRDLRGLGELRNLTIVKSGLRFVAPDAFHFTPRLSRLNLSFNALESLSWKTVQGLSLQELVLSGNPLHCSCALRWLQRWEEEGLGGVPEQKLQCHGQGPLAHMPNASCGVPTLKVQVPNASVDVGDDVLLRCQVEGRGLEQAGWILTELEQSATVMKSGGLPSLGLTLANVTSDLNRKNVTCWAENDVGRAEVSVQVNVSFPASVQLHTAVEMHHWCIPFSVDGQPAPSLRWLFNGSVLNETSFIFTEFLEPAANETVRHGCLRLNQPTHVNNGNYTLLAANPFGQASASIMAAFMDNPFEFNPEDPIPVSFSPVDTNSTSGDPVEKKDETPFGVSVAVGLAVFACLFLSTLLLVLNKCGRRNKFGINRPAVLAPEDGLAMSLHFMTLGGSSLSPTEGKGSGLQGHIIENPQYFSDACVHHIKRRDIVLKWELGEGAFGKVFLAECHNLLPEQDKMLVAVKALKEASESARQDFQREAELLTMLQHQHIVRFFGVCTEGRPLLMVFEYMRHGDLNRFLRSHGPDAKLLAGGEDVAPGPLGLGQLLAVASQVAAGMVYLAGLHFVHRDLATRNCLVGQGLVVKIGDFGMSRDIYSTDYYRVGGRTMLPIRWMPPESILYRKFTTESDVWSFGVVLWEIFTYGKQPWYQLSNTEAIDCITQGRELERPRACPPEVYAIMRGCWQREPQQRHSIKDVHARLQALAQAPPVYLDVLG
T1 sequence (P23443 whole entry): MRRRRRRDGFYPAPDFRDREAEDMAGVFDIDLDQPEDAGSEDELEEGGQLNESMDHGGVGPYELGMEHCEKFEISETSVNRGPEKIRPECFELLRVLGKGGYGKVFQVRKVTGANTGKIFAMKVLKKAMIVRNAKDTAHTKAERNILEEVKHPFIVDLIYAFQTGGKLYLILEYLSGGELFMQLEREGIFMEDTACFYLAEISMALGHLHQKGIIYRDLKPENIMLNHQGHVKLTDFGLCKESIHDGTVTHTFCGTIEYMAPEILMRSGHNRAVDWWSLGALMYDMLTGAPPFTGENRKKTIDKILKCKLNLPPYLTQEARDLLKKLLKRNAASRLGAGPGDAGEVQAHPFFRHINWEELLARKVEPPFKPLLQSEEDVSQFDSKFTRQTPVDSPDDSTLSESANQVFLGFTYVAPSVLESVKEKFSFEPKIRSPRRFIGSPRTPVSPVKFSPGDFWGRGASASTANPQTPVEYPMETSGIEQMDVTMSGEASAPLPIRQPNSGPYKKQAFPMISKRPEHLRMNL
T3 sequence (Q9P1W9 whole entry): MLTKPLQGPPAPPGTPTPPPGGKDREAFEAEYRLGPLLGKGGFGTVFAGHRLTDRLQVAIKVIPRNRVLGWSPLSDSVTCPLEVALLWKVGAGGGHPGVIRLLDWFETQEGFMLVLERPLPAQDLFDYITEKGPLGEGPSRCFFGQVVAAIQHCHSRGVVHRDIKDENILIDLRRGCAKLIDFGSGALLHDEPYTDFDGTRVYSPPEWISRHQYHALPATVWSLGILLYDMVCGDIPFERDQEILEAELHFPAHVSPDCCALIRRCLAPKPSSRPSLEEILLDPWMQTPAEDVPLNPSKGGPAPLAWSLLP

In the case of `CNC(=O)c1ccccc1Sc1ccc2c(/C=C/c3ccccn3)n[nH]c2c1` [Axitinib, reference compound], the “effect on HUVEC chemotactic invasion” value in test [1] is given as “significantly compromised”.

For `c1ccc2c(-c3cnn4cc(-c5ccc(N6CCNCC6)cc5)cnc34)ccnc2c1` [LDN-193189, reference compound], the inhibition at 0.1 µM was 13% in test [2], 14.1% in test [3] and 6.22% in test [4]. Also, the “effect on FBS-induced EC migration” value in test [5] is given as “did not affect”. For the same compound, the “effect on BMP9-induced EC migration” value in test [5] is reported as “significantly inhibited”. For the same compound, in test [5], the “effect on VEGF-induced EC migration” value is given as “no inhibitory effect”. For the same compound, in test [1], the “effect on HUVEC chemotactic invasion” value is listed as “significantly compromised”. For the same compound, the “inhibition of caALK1 compared to caALK2 (BRE-Luc)” value in test [6] is “No difference in inhibition between ALK1 and ALK2”. Besides, the “effect on caALK1-induced BRE-Luc reporter activity” value in test [6] (C2C12 cells, 0.1, 0.5 or 1 μM, 16 hours) is reported as “in a dose-dependent manner attenuated”. Further, the “effect on BMP9-induced BRE activity” value in test [7] (0.5 μM compound) is recorded as “significantly inhibited”; in test [7] (1 μM compound), “nearly decreased to basal levels”.

`CN1CCc2cccc(c2)Nc2nccc(n2)N2CCCc3cc(ccc32)C1` [OD16]: in test [2], the inhibition at 0.1 µM was -15%. Also, the inhibition at 0.1 µM in test [3] was -37.9%. Besides, the inhibition at 0.1 µM in test [4] was -5.63%. Moreover, in test [5], the “effect on FBS-induced EC migration” value is “did not affect”, the “effect on BMP9-induced EC migration” value is “significantly inhibited” and the “effect on VEGF-induced EC migration” value is “antagonized”. The “effect on HUVEC chemotactic invasion” value in test [1] was “similarly blocked”. In addition, the “inhibition of caALK1 compared to caALK2 (BRE-Luc)” value in test [6] is “higher sensitivity and more inhibitory potential against caALK1 compared to caALK2”. Moreover, the “BMP9-induced BRE-Luc activity (fold)” value in test [7] (0.1 μM compound) is given as 2.1 fold. Also, the “effect on BMP9-induced BRE activity” value in test [7] (1 μM compound) is on record as “nearly completely inhibited”.

For the compound `CN1CCC(=O)NCCNc2ccn3ncc(c3n2)-c2cccc(c2)C1` [OD29], the inhibition at 0.1 µM in test [2] was -3.52%; in test [3] it was 69.6%; in test [4], 1.97%. In test [5], the “effect on FBS-induced EC migration” value is reported as “effective in suppressing”. For the same compound, in test [5], the “effect on BMP9-induced EC migration” value was “significantly inhibited”. The “effect on VEGF-induced EC migration” value in test [5] was “antagonized”. The “effect on HUVEC chemotactic invasion” value in test [1] was “similarly blocked”. In addition, in test [6], the “inhibition of caALK1 compared to caALK2 (BRE-Luc)” value is “higher sensitivity and more inhibitory potential against caALK1 compared to caALK2”. For the same compound, the “BMP9-induced BRE-Luc activity (fold)” value in test [7] (0.5 μM compound) is recorded as 3.1 fold; in test [7] (1 μM compound) it was 0.9 fold.
